For the assay, the target named is T1, human isoforms of GABAA (α3ß2γ2) receptors (Homo sapiens, UniProt P18507+P34903).
T1 construct: expressed in transfected cells
Nature of the assay: Potentiation of GABA-evoked currents at GABAA (α3β2γ2) receptors, automated patch-clamp (QPatch), Example B1. In kind it is cell-based. Particulars: for Emax: Emax of potentiation, Ltk cells expressing GABAA α3β2γ2, 2.0 μM GABA, whole-cell, holding potential −80 mV, read-out: Max %. How it is done: The ability of compounds exemplified above to potentiate the effect of GABA on GABAA receptors (α3β2γ2) was determined using one or more of the methods described below.
Ltk cells stably expressing the human isoforms of GABAA (α3ß2γ2) receptors were used together with submaximal GABA concentrations to investigate the modulatory effects of the test items. Cells were incubated at 37° C. in a humidified atmosphere with 5% CO2 (rel. humidity about 95%). The cells were continuously maintained in and passaged in sterile culture flasks containing a 1:1 mixture of Dulbecco's modified eagle medium and nutrient mixture D-MEM/F-12 (1×, liquid, with L-Glutamine), supplemented with 10% fetal bovine serum and 1.0% Penicillin/Streptomycin solution. The complete medium as indicated above was supplemented with neomycin. In general, cells were passaged at a confluence of about 80 to 90%. For electrophysiological measurements cells were harvested at a confluence of about 80 to 90% from sterile culture flasks containing culture complete medium. Cells were transferred as suspension in PBS to the QPatch 16X or QPatch HTX system to the centrifuge/washer directly. Expression of GABA receptor was induced by adding Dexamethasone to the cells for 24 to 48 h before experimentation.
Modulatory effects of the compounds of this disclosure were investigated using cells stably transfected with GABA-activated channels of the GABAA (α3ß2γ2) subtype together with submaximal GABA concentrations. Expression of GABA receptor were induced by adding Dexamethasone to the cells for 24 to 48 h before experimentation. In general, cells were passaged at a confluence of about 80 to 90%. For electrophysiological measurements cells were harvested at a confluence of about 80 to 90% from sterile culture flasks containing culture complete medium. Cells were transferred as suspension in PBS to the QPatch 16X or QPatch HTX system to the centrifuge/washer directly. Cells were incubated at 37° C. in a humidified atmosphere with 5% CO2 (rel. humidity about 95%). The cells were continuously maintained in and passaged in sterile culture flasks containing a 1:1 mixture of Dulbecco's modified eagle medium and nutrient mixture D-MEM/F-12 (1×, liquid, with L-Glutamine), supplemented with 10% foetal bovine serum and 1.0% Penicillin/Streptomycin solution and neomycin. The 1× bath solution was made at least every 5 days out of a sterile 10× bath solution, which had been prepared prior to the experimental start of the present study and stored at 1° C. to 9° C. The final bath solution included Sodium Chloride 137 mM, Potassium Chloride 4 mM, Calcium Chloride 1.8 mM, Magnesium Chloride 1 mM, HEPES 10 mM, D-Glucose 10 mM, pH (NaOH) 7.4. The 1× intracellular solution was thawed every day and includes Potassium Chloride 130 mM, Magnesium Chloride 1 mM, Mg-ATP 5 mM, HEPES 10 mM, EGTA 5 Mm, pH (KOH) 7.2. Automated patch-clamping: Cells were transferred as suspension in serum-free medium to the QPatch HTX system and kept in the cell storage tank during experiments. All solutions applied to cells including the intracellular solution were maintained at room temperature (19° C. to 30° C.). After formation of a Gigaohm seal between the patch electrodes and transfected individual Ltk cells were ruptured to assure electrical access to the cell interior (whole-cell patch-configuration). Inward currents were measured upon application of 2.0 μM GABA to patch-clamped cells for 4 s. During the entire experiment the cells were voltage-clamped at a holding potential of −80 mV. For the analysis of test items, GABAA receptors were stimulated by 2.0 μM GABA and test item combinations described below. Thirty-second prewash steps with test items was performed in between two agonist applications. […]
For orientation: In patch-clamp work, channel activity is measured electrically.

T1 sequence (P34903 29-492): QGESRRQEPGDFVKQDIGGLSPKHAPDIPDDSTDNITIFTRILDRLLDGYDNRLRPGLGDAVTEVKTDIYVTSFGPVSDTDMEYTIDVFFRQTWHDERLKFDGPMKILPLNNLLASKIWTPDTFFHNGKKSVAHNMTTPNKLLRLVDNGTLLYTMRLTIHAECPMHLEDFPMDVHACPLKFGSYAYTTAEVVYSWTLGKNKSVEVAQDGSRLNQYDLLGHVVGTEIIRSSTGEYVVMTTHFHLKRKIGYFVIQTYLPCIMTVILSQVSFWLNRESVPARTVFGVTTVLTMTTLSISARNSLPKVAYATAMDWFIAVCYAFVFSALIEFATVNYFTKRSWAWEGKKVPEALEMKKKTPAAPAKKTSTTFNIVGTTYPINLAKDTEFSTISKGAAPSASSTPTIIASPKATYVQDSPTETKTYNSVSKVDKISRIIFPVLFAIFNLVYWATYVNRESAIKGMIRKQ
T1 sequence (P47870 25-512 partner limits assumed): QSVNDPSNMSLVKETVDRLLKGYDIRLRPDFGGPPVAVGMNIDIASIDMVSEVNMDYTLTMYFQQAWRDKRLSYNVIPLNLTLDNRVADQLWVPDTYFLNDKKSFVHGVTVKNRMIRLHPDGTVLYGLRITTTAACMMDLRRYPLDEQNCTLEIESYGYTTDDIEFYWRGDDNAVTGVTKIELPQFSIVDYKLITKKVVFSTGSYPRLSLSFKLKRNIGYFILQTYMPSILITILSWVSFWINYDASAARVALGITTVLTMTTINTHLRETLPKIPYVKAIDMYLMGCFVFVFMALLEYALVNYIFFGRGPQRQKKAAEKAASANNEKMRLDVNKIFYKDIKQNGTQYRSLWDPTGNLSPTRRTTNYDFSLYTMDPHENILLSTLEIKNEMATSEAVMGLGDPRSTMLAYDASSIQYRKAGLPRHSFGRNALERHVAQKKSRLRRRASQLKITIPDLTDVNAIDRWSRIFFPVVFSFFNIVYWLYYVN
T1 sequence (P18507 40-475): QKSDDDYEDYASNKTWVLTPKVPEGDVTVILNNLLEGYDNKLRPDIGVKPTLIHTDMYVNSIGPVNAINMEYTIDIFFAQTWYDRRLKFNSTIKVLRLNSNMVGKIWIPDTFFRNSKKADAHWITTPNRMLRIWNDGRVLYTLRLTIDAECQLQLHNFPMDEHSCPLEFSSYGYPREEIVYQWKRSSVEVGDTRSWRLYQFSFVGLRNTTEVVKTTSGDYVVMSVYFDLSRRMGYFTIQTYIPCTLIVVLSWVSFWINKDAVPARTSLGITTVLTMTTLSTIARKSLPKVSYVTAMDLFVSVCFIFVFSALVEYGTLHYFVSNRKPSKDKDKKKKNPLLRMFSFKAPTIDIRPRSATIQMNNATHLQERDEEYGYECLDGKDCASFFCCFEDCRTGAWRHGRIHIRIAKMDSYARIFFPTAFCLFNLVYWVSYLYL

Turning to `CS(=N)(=O)CCNC(=O)c1cn2c(n1)CN=C(c1ccccc1F)c1cc(Cl)ccc1-2` (stereo not drawn) [Compound 208, 8-chloro-6-(2-fluorophenyl)-N-[2-(methylsulfonimidoyl)ethyl]-4H-imidazo[1,2-a][1,4]benzodiazepine-2-carboxamide], the EC50 is < 50 nM and the Emax was in the range of 50 to 100%.
For `O=C(O)c1nc2n(c1CN1CCCCC1)-c1ccc(Cl)cc1C(c1ccccc1F)=NC2` [Compound 246, 8-chloro-6-(2-fluorophenyl)-1-(piperidin-1-ylmethyl)-4H-benzo[f]imidazo[1,2-a][1,4]diazepine-2-carboxylic acid] the same measures were > 100 nM and 50 to 100%.
On the same counts, the results for `O=C(O)c1nc2n(c1CN1CCC1)-c1ccc(Cl)cc1C(c1ccccc1F)=NC2` [Compound 243, 1-(azetidin-1-ylmethyl)-8-chloro-6-(2-fluorophenyl)-4H-benzo[f]imidazo[1,2-a][1,4]diazepine-2-carboxylic acid] are > 100 nM and > 100%.
For `CC1N=C(c2ccccc2F)c2cc(Cl)ccc2-n2cc(C(=O)O)nc21` (racemic) [Compound 101, 12-Chloro-9-(2-fluorophenyl)-7-methyl-2,5,8-triazatricyclo[8.4.0.0^2,6] tetradeca-1 (10),3,5,8,11,13-hexaene-4-carboxylic acid] the same measures were < 50 nM and > 100%.
As to `O=C(O)c1nc2n(c1CN1CCCC1)-c1ccc(Cl)cc1C(c1ccccc1F)=NC2` [Compound 247, 8-chloro-6-(2-fluorophenyl)-1-(pyrrolidin-1-ylmethyl)-4H-benzo[f]imidazo[1,2-a][1,4]diazepine-2-carboxylic acid], the EC50 is > 100 nM and the Emax was 50 to 100%.
Consider `O=C(O)c1cn2c(n1)C(O)N=C(c1ccccc1F)c1cc(Cl)ccc1-2` (stereo not drawn) [Compound 227, 8-chloro-6-(2-fluorophenyl)-4-hydroxy-4H-benzo[f]imidazo[1,2-a][1,4]diazepine-2-carboxylic acid], for which the Emax was in the range of 50 to 100%.
As to `O=C(O)c1nc2n(c1Cl)-c1ccc(Cl)cc1C(c1ccccc1F)=NC2` [Compound 235], the EC50 is < 50 nM and the Emax is > 100%.
Consider `NC(=O)C(NCc1ccccc1)c1cn2c(n1)CN=C(c1ccccc1F)c1cc(Cl)ccc1-2` (stereo not drawn) [Compound 232, 2-(Benzylamino)-2-[12-chloro-9-(2-fluorophenyl)-2,5,8-triazatricyclo[8.4.0.0^2,6]tetradeca-1 (10),3,5,8,11,13-hexaen-4-yl]acetamide], for which the EC50 is 50 to 100 nM and the Emax is 50 to 100%.
On the same counts, the results for `O=C(O)c1cn2c(n1)CN=C(c1c(F)cccc1F)c1cc(Cl)ccc1-2` [Compound 214, 8-chloro-6-(2,6-difluorophenyl)-4H-imidazo[1,2-a][1,4]benzodiazepine-2-carboxylic acid] are < 50 nM and 50 to 100%.
As to `O=C(O)c1cn2c(n1)CN=C(c1cccc(F)c1F)c1cc(Cl)ccc1-2` [Compound 215, 8-chloro-6-(2,3-difluorophenyl)-4H-imidazo[1,2-a][1,4]benzodiazepine-2-carboxylic acid], the EC50 was < 50 nM and the Emax is > 100%.
On the same counts, the results for `C[N+](C)(C)Cc1cn2c(n1)CN=C(c1ccccc1F)c1cc(Cl)ccc1-2` [Compound 202, {[12-chloro-9-(2-fluorophenyl)-2,5,8-triazatricyclo[8.4.0.0^2,6]tetradeca-1 (10),3,5,8,11,13-hexaen-4-yl]methyl}trimethylazanium chloride] are < 50 nM and 50 to 100%.
On the same counts, the results for `O=C(O)c1nc2n(c1-c1ccccc1)-c1ccc(Cl)cc1C(c1ccccc1F)=NC2` [Compound 239, 8-chloro-6-(2-fluorophenyl)-1-phenyl-4H-imidazo[1,2-a][1,4]benzodiaze pine-2-carboxylic acid] are > 100 nM and > 100%.
For `Cc1c(C(=O)O)nc2n1-c1ccc(Cl)cc1C(c1ccccc1F)=NC2` [Compound 213, 8-chloro-6-(2-fluorophenyl)-1-methyl-4H-imidazo[1,2-a][1,4]benzodiazepine-2-carboxylic acid], the EC50 is < 50 nM and the Emax is > 100%.
On the same counts, the results for `COCCOCCOCCOCCOCCOCCOCCOCCNC(=O)c1cn2c(n1)CN=C(c1ccccc1F)c1cc(Cl)ccc1-2` [Compound 229, 8-chloro-6-(2-fluorophenyl)-N-[2-[2-[2-[2-[2-[2-[2-(2-methoxyethoxy)ethoxy]ethoxy]ethoxy]ethoxy]ethoxy]ethoxy]ethyl]-4H-imidazo[1,2-a][1,4]benzodiazepine-2-carboxamide] are > 100 nM and > 100%.
On the same counts, the results for `O=C(O)c1cn2c(n1)C[N+]([O-])=C(c1ccccc1F)c1cc(Cl)ccc1-2` [Compound 236, 2-carboxy-8-chloro-6-(2-fluorophenyl)-4H-514-benzo[e]imidazo[2,1-c][1,4]diazepin-5-olate] are > 100 nM and 50 to 100%.
On the same counts, the results for `O=C(O)c1cn2c(n1)CN=C(c1ccccc1F)c1cc(C3CC3)ccc1-2` [Compound 222, 8-cyclopropyl-6-(2-fluorophenyl)-4H-imidazo[1,2-a][1,4]benzodiazepine-2-carboxylic acid] are 50 to 100 nM and > 100%.
Regarding `NC(=O)[C@H](O)c1cn2c(n1)CN=C(c1ccccc1F)c1cc(Cl)ccc1-2` [Compound 231, (2R)-2-[12-chloro-9-(2-fluorophenyl)-2,5,8-triazatricyclo[8.4.0.0^2,6]tetradeca-1 (10),3,5,8,11,13-hexaen-4-yl]-2-hydroxyacetamide], the EC50 is < 50 nM and the Emax was > 100%.
Turning to `Cc1ccc2c(c1)C(c1ccccc1F)=NCc1nc(C(=O)O)cn1-2` [Compound 226, 6-(2-fluorophenyl)-8-methyl-4H-imidazo[1,2-a][1,4]benzodiazepine-2-carboxylic acid], the EC50 is < 50 nM and the Emax is > 100%.
`CCc1c(C(=O)O)nc2n1-c1ccc(Cl)cc1C(c1ccccc1F)=NC2` [Compound 217, 8-chloro-1-ethyl-6-(2-fluorophenyl)-4H-imidazo[1,2-a][1,4]benzodiazepine-2-carboxylic acid]: the EC50 is < 50 nM and the Emax was > 100%.
`O=C(O)c1nc2n(c1CN1CCOCC1)-c1ccc(Cl)cc1C(c1ccccc1F)=NC2` [Compound 245, 8-chloro-6-(2-fluorophenyl)-1-(morpholinomethyl)-4H-benzo[f]imidazo[1,2-a] [1,4]diazepine-2-carboxylic acid]: the EC50 was > 100 nM and the Emax was > 100%.
For `CN(C)C(=O)c1cn2c(n1)CN=C(c1ccccc1F)c1cc(Cl)ccc1-2` [Compound 241, 8-chloro-6-(2-fluorophenyl)-N,N-dimethyl-4H-imidazo[1,2-a][1,4]benzodiazepine-2-carboxamide] the same measures were < 50 nM and > 100%.
Take `NCCNC(=O)c1cn2c(n1)CN=C(c1ccccc1F)c1cc(Cl)ccc1-2` [Compound 210, N-(2-aminoethyl)-8-chloro-6-(2-fluorophenyl)-4H-imidazo[1,2-a][1,4]benzodiazepine-2-carboxamide]: the EC50 was < 50 nM and the Emax is > 100%.
On the same counts, the results for `Cc1ccccc1C1=NCc2nc(C(=O)O)cn2-c2ccc(Cl)cc21` [Compound 204, 8-chloro-6-(o-tolyl)-4H-imidazo[1,2-a][1,4]benzodiazepine-2-carboxylic acid] are < 50 nM and > 100%.

Usually EC50 stands for the concentration giving half of the maximal effect.

These data come from patent US20260042763A1, “PE[…] POSITIVE […] THE TREATMENT OF IRRITABLE BOWEL SYNDROME AND OTHER AILMENTS OF THE PERIPHERAL NERVOUS SYSTEM” (The Johns Hopkins University, priority 2022, published 2026).
